Data published in patent US12553033B2, “Medium, methods, cells and secreted factors for stem cell culture and therapy” (SanBio, Inc., priority 2016, dated 2026).

Experiments:
[1] = tested on: Human bone marrow derived mesenchymal stem cells; assay: TNFSF10 (TRAIL) mRNA induction (quantitative real-time PCR) in mesenchymal stem cells, type 1 priming; assay type: cell-based; conditions: normalized to 18S rRNA
Method: Referring to FIG. 4A and FIG. 4B, Type 1 mesenchymal stem cell priming by TLR4 is further enhanced with leukotriene B4 (LTB4), serotonin (5-HT), melatonin (MEL). Human bone marrow derived mesenchymal stem cells were induced into type 1 mesenchymal stem cells using lipopolysaccharide (LPS) and 0.5 ng/ml of human recombinant erythropoietin. Total RNA was isolated, purified, and reverse transcribed to cDNA. Quantitative real-time PCR was carried out using SYBR Green Master Mix. Data were analyzed using the quantitative comparative CT method, normalizing target gene expression to the 18S rRNA housekeeping gene, and shown as fold increase over the untreated control. […] Error bars represent +/− the standard error of the mean (SEM). […] TLR4 (approx. 425,854-fold FIG. 4A; approx. 7,567-fold FIG. 4B), LTB4 (approx. 49-fold FIG. 4A; approx. 49-fold FIG. 4B), 5-HT (approx. 333-fold FIG. 4B), or MEL (approx. 489-fold FIG. 4B).

[2] = tested on: Human bone marrow derived mesenchymal stem cells; assay: CXCL9 mRNA induction (quantitative real-time PCR) in mesenchymal stem cells, type 2 priming; assay type: cell-based; conditions: normalized to 18S rRNA
Method: Referring to FIG. 3A and FIG. 3B, Type 2 mesenchymal stem cell priming by TLR3 is further enhanced with Acetylcholine (ACH), Glutamate (GLU), and Lipoxin A4 (LAX4). Human bone marrow derived mesenchymal stem cells were induced into type 2 mesenchymal cells using poly(I:C) and 0.5 ng/ml of human recombinant erythropoictin. Total RNA was isolated, purified, and reverse transcribed to cDNA. Quantitative real-time PCR was carried out using SYBR Green Master Mix. Data were analyzed using the quantitative comparative CT method, normalizing target gene expression to the 18S rRNA housekeeping gene, and shown as fold increase over the untreated control. […] Error bars represent +/− the standard error of the mean (SEM).

Row | Compound | TNFSF10 (TRAIL) gene expression, fold increase over the untreated control ([1]; FIG. 4B experiment) | CXCL9 gene expression, fold increase over the untreated control ([2]; FIG. 3A experiment) | CXCL9 gene expression, fold increase over the untreated control ([2]; FIG. 3B experiment) | TNFSF10 (TRAIL) gene expression, fold increase over the untreated control ([1]; FIG. 4A experiment)
1 | NCCc1c[nH]c2ccc(O)cc12 [5-HT, serotonin] | approx. 333 fold |  |  | 
2 | CC(=O)OCC[N+](C)(C)C [ACH, Acetylcholine] |  | approx. 3.7 fold | approx. 20 fold | 
3 | N[C@@H](CCC(=O)O)C(=O)O [GLU, Glutamate] |  | approx. 1.4 fold | approx. 16 fold | 
4 | CCCCC[C@H](O)/C=C/C=C\C=C\C=C\[C@@H](O)[C@@H](O)CCCC(=O)O [LAX4, Lipoxin A4] |  | approx. −2 fold | approx. 13 fold | 
5 | CCCCC/C=C\C[C@@H](O)/C=C/C=C/C=C\[C@@H](O)CCCC(=O)O [LTB4, leukotriene B4] | approx. 49 fold |  |  | approx. 49 fold
6 | COc1ccc2[nH]cc(CCNC(C)=O)c2c1 [MEL, melatonin] | approx. 489 fold |  |  | 
7 | poly(I:C) [TLR3] |  | approx. 8.8 fold | approx. 22 fold | 
